Test results from article PMC7588595, “Small-molecule active pharmaceutical ingredients of approved cancer therapeutics inhibit human aspartate/asparagine-β-hydroxylase” (Bioorganic & Medicinal Chemistry, 2020).
Structures can show the parent of a compound that is named as a salt. Where two headings read alike, the source gives them in different places.

Molecular target: T1, human AspH (His6-AspH315–758) (Homo sapiens, UniProt Q12797)
T1 construct: N-Terminally His6-tagged human AspH315–758 (His6-AspH315–758) was produced in Escherichia coli BL21 (DE3) cells; made in house; host or cells: Escherichia coli BL21 (DE3), pET-28a(+) vector
T1 sequence (Q12797 315-758): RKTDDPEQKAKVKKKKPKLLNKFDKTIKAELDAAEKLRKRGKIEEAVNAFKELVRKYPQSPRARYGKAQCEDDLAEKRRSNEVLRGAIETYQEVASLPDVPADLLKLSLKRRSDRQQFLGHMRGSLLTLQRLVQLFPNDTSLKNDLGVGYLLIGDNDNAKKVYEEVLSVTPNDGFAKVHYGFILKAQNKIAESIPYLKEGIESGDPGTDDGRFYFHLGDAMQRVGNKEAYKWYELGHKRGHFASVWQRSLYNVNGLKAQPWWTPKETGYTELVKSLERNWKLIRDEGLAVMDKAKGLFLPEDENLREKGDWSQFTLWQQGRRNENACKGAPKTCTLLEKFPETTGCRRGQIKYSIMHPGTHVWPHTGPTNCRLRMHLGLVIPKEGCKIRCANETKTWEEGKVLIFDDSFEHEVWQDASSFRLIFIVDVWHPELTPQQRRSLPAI
Experiment: SPE-MS AspH inhibition assay (hFX-CP101-119 substrate hydroxylation)
Format: biochemical

[1] = AspH-inhibitor screening, 384-well Plate 1
[2] = AspH-inhibitor screening, 384-well Plate 1, substrate conversion
[3] = AspH-inhibitor screening, Plate 1-duplicate
[4] = AspH-inhibitor screening, Plate 1-duplicate, substrate conversion

| SMILES | Plate 1 (% inhibition) [1] [%] | Plate 1 (% conversion) [2] [%] | Plate 1-duplicate (% inhibition) [3] [%] | Plate 1-duplicate (% conversion) [4] [%] | Plate 1 (% conversion) [%] | Plate 1 (% inhibition) [%] | Plate 1-duplicate (% conversion) [%] | Plate 1-duplicate (% inhibition) [%] |
| --- | --- | --- | --- | --- | --- | --- | --- | --- |
| CC(C)n1cnc2c(NCCc3ccc(O)cc3)nc(-c3csc4ccccc34)nc21.Cl [SR1 HCl] | 33.05 | 34.49 | 43.66 | 30.39 | – | – | – | – |
| CCC(C)(C)C(=O)O[C@H]1C[C@@H](C)C=C2C=C[C@H](C)[C@H](CC[C@@H]3C[C@@H](O)CC(=O)O3)[C@H]21 [Simvastatin] | -15.63 | 56.97 | -16.09 | 60.02 | – | – | – | – |
| CNC(=O)c1cc(Oc2ccc(NC(=O)Nc3ccc(Cl)c(C(F)(F)F)c3)cc2)ccn1 [Sorafenib] | 50.93 | 26.23 | 41.45 | 31.48 | – | – | – | – |
| CN1CCN(c2nc(C3=C(c4c[nH]c5ccccc45)C(=O)NC3=O)c3ccccc3n2)CC1 [Sotrastaurin] | 20.56 | 40.26 | 11.48 | 46.35 | – | – | – | – |
| O=[N+]([O-])c1ccc2c(c1)S(=O)(=O)C=C2 [Stattic] | 9.52 | 45.35 | 9.59 | 47.29 | – | – | – | – |
| CN(N=O)C(=O)N[C@@H](C=O)[C@@H](O)[C@H](O)[C@H](O)CO [Streptozocin] | 6.30 | 46.84 | 4.95 | 49.58 | – | – | – | – |
| CCN(CC)CCNC(=O)c1c(C)[nH]c(/C=C2\C(=O)Nc3ccc(F)cc32)c1C [Sunitinib] | -40.27 | 68.35 | -34.40 | 69.10 | – | – | – | – |
| Cn1c(=O)c(F)c(Nc2ccc(I)cc2F)c2c(=O)n(C[C@@H](O)CO)cnc21 [TAK-733] | -22.47 | 60.13 | -22.24 | 63.07 | – | – | – | – |
| CCS(=O)(=O)c1cccc(-c2cc(C(=O)NC3CCN(C)CC3)c(C)c3[nH]c4ncc(C)cc4c23)c1 [TAK-901] | -15.73 | 57.02 | -23.07 | 63.48 | – | – | – | – |
| Cc1cc(C(C)Nc2ccccc2)c2nc(N3CCOCC3)cc(=O)n2c1 (centres unmarked) [TGX-221] | -1.55 | 50.47 | 0.18 | 51.95 | – | – | – | – |
| CC/C(=C(\c1ccccc1)c1ccc(OCCN(C)C)cc1)c1ccccc1 [Tamoxifen citrate] | 67.86 | 18.41 | 59.34 | 22.61 | – | – | – | – |
| COc1cc2c(N3CCN(C(=O)Nc4ccc(OC(C)C)cc4)CC3)ncnc2cc1OCCCN1CCCCC1 [Tandutinib] | -11.71 | 55.16 | -8.54 | 56.28 | – | – | – | – |
| C[C@@H]1CCN(C(=O)CC#N)C[C@@H]1N(C)c1ncnc2[nH]ccc12 [Tasocitinib_Tofacitinib] | 9.63 | 45.30 | 6.13 | 49.00 | – | – | – | – |
| Cn1nnc2c(C(N)=O)ncn2c1=O [Temozolomide] | 5.12 | 47.38 | 8.46 | 47.85 | – | – | – | – |
| CO[C@H]1C[C@@H]2CC[C@@H](C)[C@@](O)(O2)C(=O)C(=O)N2CCCC[C@H]2C(=O)O[C@H]([C@H](C)C[C@@H]2CC[C@@H](OC(=O)C(C)(CO)CO)[C@H](OC)C2)CC(=O)[C@H](C)/C=C(\C)[C@@H](O)[C@@H](OC)C(=O)[C@H](C)C[C@H](C)/C=C/C=C/C=C/1C [Temsirolimus] | 35.77 | 33.23 | 28.92 | 37.70 | – | – | – | – |
| COc1cc([C@@H]2c3cc4c(cc3[C@@H](O[C@@H]3O[C@@H]5CO[C@@H](c6cccs6)O[C@H]5[C@H](O)[C@H]3O)[C@H]3COC(=O)[C@H]23)OCO4)cc(OC)c1O [Teniposide] | 10.91 | 44.71 | 6.57 | 48.78 | – | – | – | – |
| Cl.c1ccc(C2CN3CCSC3=N2)cc1 (centres unmarked) [Tetramisole HCl] | – | – | – | – | 46.13 | 7.83 | 48.14 | 7.87 |
| O=C1CCC(N2C(=O)c3ccccc3C2=O)C(=O)N1 (centres unmarked) [Thalidomide] | 3.16 | 48.29 | 1.43 | 51.33 | – | – | – | – |
| S=P(N1CC1)(N1CC1)N1CC1 [Thio-TEPA] | 17.81 | 41.53 | 7.73 | 48.21 | – | – | – | – |
| Nc1nc2nc[nH]c2c(=S)[nH]1 [Thioguanine] | 7.28 | 46.39 | 8.14 | 48.00 | – | – | – | – |
| Cn1cncc1[C@@](N)(c1ccc(Cl)cc1)c1ccc2c(c1)c(-c1cccc(Cl)c1)cc(=O)n2C [Tipifarnib (Zarnestra)] | -67.01 | 80.70 | -61.42 | 82.50 | – | – | – | – |
| CC[C@@]1(O)C(=O)OCc2c1cc1n(c2=O)Cc2cc3c(CN(C)C)c(O)ccc3nc2-1 [Topotecan hydrochloride] | 4.87 | 47.50 | 6.81 | 48.66 | – | – | – | – |
| CN(C)CCOc1ccc(/C(=C(/CCCl)c2ccccc2)c2ccccc2)cc1 [Toremifene citrate] | 75.12 | 15.06 | 75.95 | 14.37 | – | – | – | – |
